Laboratory results from patent US20110166078A1, “OLIGOSACCHARIDE COMPOUNDS FOR USE IN MOBILISING STEM CELLS” (ENDOTIS PHARMA, priority 2008, published 2011).

Assays:
heparanase = target: T1, heparanase (Homo sapiens, UniProt Q9Y251); test: Anti-heparanase activity (fondaparinux degradation / factor Xa chromogenic assay); type: biochemical
T1 sequence (Q9Y251 158-543 limits assumed): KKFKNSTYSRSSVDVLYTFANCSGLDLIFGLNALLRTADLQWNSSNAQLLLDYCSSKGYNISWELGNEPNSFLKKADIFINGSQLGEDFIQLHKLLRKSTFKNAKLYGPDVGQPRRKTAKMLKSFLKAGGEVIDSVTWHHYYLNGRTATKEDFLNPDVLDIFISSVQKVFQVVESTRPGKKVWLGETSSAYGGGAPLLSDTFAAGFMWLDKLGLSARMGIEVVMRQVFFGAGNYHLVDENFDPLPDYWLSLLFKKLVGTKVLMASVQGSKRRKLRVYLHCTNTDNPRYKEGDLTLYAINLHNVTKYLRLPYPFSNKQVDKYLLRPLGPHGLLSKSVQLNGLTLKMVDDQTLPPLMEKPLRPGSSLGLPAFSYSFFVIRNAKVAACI
T1 sequence (Q9Y251 36-109 limits assumed): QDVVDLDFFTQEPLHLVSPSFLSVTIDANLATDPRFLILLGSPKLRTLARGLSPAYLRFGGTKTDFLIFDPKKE
Method: To determine the compounds IC50 values for the heparanase target, we adapted an assay based on the ability of heparanase to degrade fondaparinux (Sanofi patent No. 287 3377 FR), and the capacity of fondaparinux to inhibit factor Xa activity via AT III binding. This assay was carried out on a STA Compact robot (Diagnostica Stago). Briefly, different concentrations of compounds were added to a mixture containing the heparanase enzyme and fondaparinux and after a time-fixed incubation period, AT III, Factor Xa and a chromogenic substrate (CBS 31.39) were sequentially added to the reaction mix. Production of paranitroanilin resulting from the degradation of the chromogenic substrate CBS 31.39 was monitored at 405 nm. Data obtained for the different concentration points were plotted using a four-parameter fit model and IC50 determined.

VEGF-A = target: T2, VEGF-A (Homo sapiens, UniProt P15692); test: VEGF-A/heparin competition assay by SPR (Biacore); type: binding; details: 10 nM VEGF-A, biotinylated low molecular weight heparin, Sensorchip SA
T2 sequence (P15692 27-191 isoform P15692-4): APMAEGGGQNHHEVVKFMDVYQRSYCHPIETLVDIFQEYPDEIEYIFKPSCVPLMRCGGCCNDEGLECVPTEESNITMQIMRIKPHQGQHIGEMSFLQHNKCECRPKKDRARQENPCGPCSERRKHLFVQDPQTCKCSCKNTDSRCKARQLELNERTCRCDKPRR
Method: (§1) Heparin or low molecular weight heparin (6 kDa) from SIGMA were biotinylated at the reducing end and immobilized on a Biacore sensorchip. Different concentrations of the compounds of the present invention were co-incubated at a fixed concentration of targets: FGF-2, PDGF-β, VEGF-A or SDF-1α for 30 minutes. The mixture was then injected onto the streptavidin control (control reference) and HP surfaces. Only free growth factor (GF) or chemokine, i.e. the target molecules not bound to compounds of the present invention, were trapped on the heparin surface. From the binding of free targets on heparin, the percentages of inhibition were calculated and then reported in function of compound concentrations. The plot was fitted with a four-parameter model and IC50 was calculated. The 0% inhibition value was obtained for the injection of the studied target in running-buffer, and the 100% inhibition value was obtained for the injection of the studied target co-incubated with 10 μM of low molecular weight heparin 6 kDa.
A VEGF-A/heparin competition assay using the Biacore technology was performed using the following conditions: 10 nM VEGF-A, biotinylated low molecular weight heparin, Reference Streptavidin, Sensorchip SA, HBS-P, Regeneration NaCl 2M.
(§2) IC50 values of compounds of the present invention were determined using the Biacore technology for the growth factor and chemokine/heparin competition assays that contained the following proteins: VEGF-A, SDF-1α, FGF-2 and PDGF-β.

FGF-2 = FGF-2 (Homo sapiens, UniProt P09038); test: FGF-2/heparin competition assay by SPR (Biacore); type: binding; details: 10 nM FGF-2, biotinylated heparin, Sensorchip C1
FGF-2, sequence (P09038 143-288, species assumed): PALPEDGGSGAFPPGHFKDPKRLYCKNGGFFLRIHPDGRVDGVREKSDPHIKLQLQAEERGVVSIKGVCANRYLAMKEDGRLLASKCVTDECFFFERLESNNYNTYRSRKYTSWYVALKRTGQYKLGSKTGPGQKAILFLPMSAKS
Method: as §1
A FGF-2/heparin competition assay using the Biacore technology was performed in the following conditions: 10 nM FGF-2, biotinylated heparin, Reference Streptavidin, Sensorchip C1, PBS-T 0.02%, Regeneration NaCl 2M
as §2

[1] = tested on: control and VEGF-A-stimulated angiogenesis (endothelial tubules, HUVEC/NHDF co-culture); test: In vitro angiogenesis assay (endothelial tubule formation, AngioKit); type: cell-based, human; details: 30 μM compound; anti-CD31 ELISA and AngioSys image analysis; FIGS. 13-15
Text: These experiments are also known as endothelial tubule formation assays and they are used to evaluate the compound effects on in vitro angiogenesis (the neo-formation of blood vessels from pre-existing ones). This process is critical in tumour development as bloodstream brings all the necessary nutrients and oxygen to cancer cells.
The assay uses a commercially available product (AngioKit) specially designed for screening experiments. The product consists of a 24 or 96-well culture plate containing endothelial and fibroblast cells. A similar assay has been developed “in-house” using 48-well culture plates.
Endothelial cells will, on a ten-day period, develop into a branched network of endothelial tubules or “primitive” blood vessels. This process requires a co-culture with fibroblasts, these latter cells secreting essential growth factors for endothelial cells. At the end of the incubation period (about ten days), angiogenesis is monitored both by ELISA and image analysis software quantifying different blood vessel parameters (number and average length of tubules, field area, number of junctions for example). All reagents and material (except the oligosaccharide compounds, the VEGF-A and the 48-well plate AngioKits) are bought from TCS CellWorks (http://www.tcscellworks.co.uk) which provides: • 24 and 96-well plate AngioKits (including culture medium) • Anti-CD31 (a cell marker specifically expressed on endothelial cells) reagents for ELISA and tubule staining procedures. • AngioSys image analysis software
For home-made 48-well plate AngioKits, NHDF and HUVEC cells were independently purchased while TCS CellWorks culture medium and protocol were used.
The cell medium is replaced with fresh one (day 1) and cells are incubated at 37° C. with the compounds of interest (oligosaccharides and/or angiogenic proteins, such as growth factors). During the course of the experiment, the culture medium (including oligosaccharides and/or angiogenic proteins) is replaced at days 4 and 7.
At day 10, the assay is terminated by the labelling of endothelial cells by an ELISA procedure (indirect colorimetric titration of the endothelial cell number through dosage of the endothelial-specific CD31 marker) and the staining of endothelial tubules. Photographs of stained tubules are taken and analysed with the AngioSys image analysis software.
In the following assay the effects of compounds 239, 240, 246, 247, 248, 249, 252, 254, 255 and 257 on in vitro angiogenesis were measured (all compounds were added at the 30 μM concentration). […] For the data presented in FIG. 13, AngioSys image analyses are shown on FIG. 14. Photographs of endothelial tubules are shown on the side of the anti-CD31 ELISA (see FIGS. 13 and 15).

Row | Compound | IC50 (heparanase) [nM] | IC50 (VEGF-A) [nM] | IC50 (FGF-2) [nM] | inhibition of control and/or VEGF-A-stimulated angiogenesis [1]
1 | C#CCCCOC1OC(COS(=O)(=O)[O-])C(OC2OC(C(=O)[O-])C(OC3OC(COS(=O)(=O)[O-])C(OC4OC(C(=O)[O-])C(OC5OC(COS(=O)(=O)[O-])C(OC6OC(C(=O)[O-])C(OC7OC(COS(=O)(=O)[O-])C(OC8OC(C(=O)[O-])C(OCc9ccccc9)C(OCc9ccccc9)C8OS(=O)(=O)[O-])C(OCc8ccccc8)C7NS(=O)(=O)[O-])C(OCc7ccccc7)C6OS(=O)(=O)[O-])C(OCc6ccccc6)C5NS(=O)(=O)[O-])C(OCc5ccccc5)C4OS(=O)(=O)[O-])C(OCc4ccccc4)C3NS(=O)(=O)[O-])C(OCc3ccccc3)C2OS(=O)(=O)[O-])C(OCc2ccccc2)C1NS(=O)(=O)[O-].[Na+].[Na+].[Na+].[Na+].[Na+].[Na+].[Na+].[Na+].[Na+].[Na+].[Na+].[Na+].[Na+].[Na+].[Na+].[Na+] (centres unmarked) [Compound 240] | 0.42 | 4.8 | 3.6 | inhibition of control and/or VEGF-A-stimulated angiogenesis
2 | C#CCCCOC1OC(COS(=O)(=O)[O-])C(OC2OC(C(=O)[O-])C(OC3OC(COS(=O)(=O)[O-])C(OC4OC(C(=O)[O-])C(OC5OC(COS(=O)(=O)[O-])C(OC6OC(C(=O)[O-])C(OCc7ccccc7)C(OCc7ccccc7)C6OS(=O)(=O)[O-])C(OCc6ccccc6)C5NS(=O)(=O)[O-])C(OCc5ccccc5)C4OS(=O)(=O)[O-])C(OCc4ccccc4)C3NS(=O)(=O)[O-])C(OCc3ccccc3)C2OS(=O)(=O)[O-])C(OCc2ccccc2)C1NS(=O)(=O)[O-].[Na+].[Na+].[Na+].[Na+].[Na+].[Na+].[Na+].[Na+].[Na+].[Na+].[Na+].[Na+] (centres unmarked) [Compound 239] | 9.2 | 5.2 | 4.5 | inhibition of control and/or VEGF-A-stimulated angiogenesis
